Reference: paper PMC8137473, “Preclinical trial of a MAP4K4 inhibitor to reduce infarct size in the pig: does cardioprotection in human stem cell-derived myocytes predict success in large mammals?” (Basic Research in Cardiology, 2021)

System: porcine model of MI
Experiment: efficacy study: hemodynamics and LV function
Assay type: in vivo, swine
Details: for 2-D ejection fraction / LV end-diastolic lumen surface / LV end-diastolic wall thickness (infarct region) / LV end-systolic lumen surface / LV end-systolic wall thickness (infarct region) / Systolic Wall thickening (infarct region): echocardiography; for DAP / HR / MAP / SAP: fluid-filled catheter
Experimental: Next, an efficacy study was performed, in adherence to published guidelines for rigor and reproducibility, to evaluate the postulated benefit of DMX-10001 in a large-mammal model of MI. Briefly, 36 closed-chest swine (41 ± 2 kg) were subjected to regional ischemia by occluding the left anterior descending coronary artery (LAD) distal to the first diagonal branch for 60 min, followed by 24 h of reperfusion. Treatment with DMX-10001 (60 mg/kg/h for 0.5 h, followed by 17 mg/kg/h for 23.5 h) versus the vehicle was initiated 20 min prior to reperfusion and continued for 1 day. After 2 h of reperfusion, animals were allowed to recover from anesthesia. At 24 h of reperfusion, the infarct area (IA), area of no-reflow (NR), and area at ischemic risk (AAR) were determined. Transthoracic short-axis B-mode echocardiograms and measurements of LV pressure and its first derivative (LVdP/dt) were obtained at baseline and at 24 h of reperfusion. LV pressure–volume measurements were obtained at 24 h of reperfusion. Heart-type fatty acid binding protein (hFABP) release was measured, as a biomarker that correlates with IS and NR in swine at least as well as cardiac troponin I [30].
A transthoracic short-axis B-mode echocardiogram (ZS3, Zonare Medical Systems, Mountain View, CA) was performed to determine LV contractile performance. LV pressure and its first derivative (LVdP/dt) were determined using a micro-manometer-tipped catheter (SPR-350S, Millar Inc., Houston, TX), before infarct induction and again before killing. Terminal LV pressure–volume measurements were also performed, using a 7F conductance catheter (CD Leycom, Hengelo, The Netherlands) advanced into the LV [32]. After calibration of the system, pressure–volume loops were recorded during a breath hold.
Hemodynamic and LV global function were recorded and digitized online using a three-channel data acquisition program (ATCODAS, Dataq Instruments Inc., Akron OH) and stored on a computer for off-line analysis with a program written in MATLAB (Mathworks Inc., Natick, MA). A minimum of 10 s was selected for analysis of the digitized hemodynamic signals. Pressure–volume-related data were recorded and stored on a computer for off-line analysis (CD Leycom, Hengelo, The Netherlands). Statistical significance (P < 0.05, two tailed) for changes was determined by two-way ANOVA (time point in protocol x treatment) for repeated measures, followed by post hoc testing with the Bonferonni multiple comparison test.

[1] = Millar catheter, Day 1 Baseline
[2] = Millar catheter, Day 2 End of Reperfusion
[3] = conductance catheter, End of Reperfusion
[4] = Coronary artery occlusion 15 min
[5] = Coronary artery occlusion 40 min
[6] = Coronary artery occlusion 60 min

For `COCCOc1ccc(-c2cn(-c3ccccc3)c3ncn(COP(=O)(O)O)c(=O)c23)cc1` [DMX-10001], the “LV dP/dtmax” value [1] was 1830 mmHg/s, the “LV dP/dtmin” value [1] was -2080 mmHg/s and the “LV dPdtP40” value [1] was 1640 mmHg/s. The LV end-diastolic pressure [1] was 8 mmHg, the “LV peak systolic pressure” value [1] was 102 mmHg and the tau [1] was 34 ms. For the same compound, the “LV dP/dtmax” value [2] was 920 mmHg/s, the “LV dP/dtmin” value [2] was -1240 mmHg/s and the “LV dPdtP40” value [2] was 800 mmHg/s. For the same compound, the LV end-diastolic pressure [2] was 13 mmHg, the “LV peak systolic pressure” value [2] was 78 mmHg and the tau [2] was 44 ms. The 3-D ejection fraction [3] was 34%, the Cardiac output [3] was 4.7 L/min and the Heart rate [3] was 109 beats/min. For the same compound, the LV end-diastolic pressure [3] was 10 mmHg, the LV end-diastolic volume [3] was 138 mL and the LV end-systolic volume [3] was 96 mL. For the same compound, the LV peak-systolic pressure [3] was 73 mmHg, the Stroke volume [3] was 45 mL/beat and the tau [3] was 28 ms. For the same compound, the 2-D ejection fraction (Day 1 Baseline) was 44%, the “LV end-diastolic lumen surface” value (Day 1 Baseline) was 1843 mm^2 and the “LV end-diastolic wall thickness (infarct region)” value (Day 1 Baseline) was 7.4 mm. For the same compound, the “LV end-systolic lumen surface” value (Day 1 Baseline) was 1034 mm^2, the “LV end-systolic wall thickness (infarct region)” value (Day 1 Baseline) was 10.7 mm and the “Systolic Wall thickening (infarct region)” value (Day 1 Baseline) was 49%. The 2-D ejection fraction (Day 2 End of Reperfusion) was 25%, the “LV end-diastolic lumen surface” value (Day 2 End of Reperfusion) was 1916 mm^2 and the “LV end-diastolic wall thickness (infarct region)” value (Day 2 End of Reperfusion) was 8.5 mm. The “LV end-systolic lumen surface” value (Day 2 End of Reperfusion) was 1435 mm^2, the “LV end-systolic wall thickness (infarct region)” value (Day 2 End of Reperfusion) was 8.7 mm and the “Systolic Wall thickening (infarct region)” value (Day 2 End of Reperfusion) was 3%. For the same compound, the “effect on hemodynamic and LV functional end-points after ischemia–reperfusion” value (efficacy study) was “neither worsened nor enhanced”, the DAP (Baseline) was 75 ± 15 mmHg and the HR (Baseline) was 124 ± 33 bpm. The MAP (Baseline) was 89 ± 16 mmHg, the SAP (Baseline) was 107 ± 14 mmHg and the DAP [4] was 76 ± 28 mmHg. The HR [4] was 89 ± 40 bpm, the MAP [4] was 91 ± 30 mmHg and the SAP [4] was 110 ± 34 mmHg. For the same compound, the DAP [5] was 58 ± 16 mmHg, the HR [5] was 78 ± 31 bpm and the MAP [5] was 71 ± 17 mmHg. The SAP [5] was 88 ± 18 mmHg, the DAP [6] was 52 ± 10 mmHg and the HR [6] was 71 ± 21 bpm. It also gave an MAP [6] of 65 ± 11 mmHg, an SAP [6] of 82 ± 13 mmHg and a DAP (Reperfusion (day 1) 10 min) of 61 ± 13 mmHg. For the same compound, the HR (Reperfusion (day 1) 10 min) was 99 ± 22 bpm, the MAP (Reperfusion (day 1) 10 min) was 74 ± 13 mmHg and the SAP (Reperfusion (day 1) 10 min) was 91 ± 13 mmHg. The DAP (Reperfusion (day 1) 30 min) was 63 ± 11 mmHg, the HR (Reperfusion (day 1) 30 min) was 120 ± 31 bpm and the MAP (Reperfusion (day 1) 30 min) was 73 ± 11 mmHg. For the same compound, the SAP (Reperfusion (day 1) 30 min) was 88 ± 11 mmHg, the DAP (Reperfusion (day 1) 120 min) was 62 ± 9 mmHg and the HR (Reperfusion (day 1) 120 min) was 94 ± 26 bpm. For the same compound, the MAP (Reperfusion (day 1) 120 min) was 73 ± 9 mmHg, the SAP (Reperfusion (day 1) 120 min) was 87 ± 10 mmHg and the DAP (Reperfusion (day 2) 22h 40 min) was 56 ± 13 mmHg. For the same compound, the HR (Reperfusion (day 2) 22h 40 min) was 112 ± 24 bpm, the MAP (Reperfusion (day 2) 22h 40 min) was 67 ± 13 mmHg and the SAP (Reperfusion (day 2) 22h 40 min) was 80 ± 13 mmHg. For the same compound, the DAP (Reperfusion (day 2) 23h 40 min) was 62 ± 17 mmHg, the HR (Reperfusion (day 2) 23h 40 min) was 103 ± 14 bpm and the MAP (Reperfusion (day 2) 23h 40 min) was 75 ± 18 mmHg. The SAP (Reperfusion (day 2) 23h 40 min) was 91 ± 20 mmHg.
